One assay deals with P. aeruginosa PAO1/GN315. Description: MIC, agar plate dilution method, P. aeruginosa PAO1/GN315. The following applies: for MIC: Pseudomonas aeruginosa, read-out: minimal inhibitory concentration (MIC), P. aeruginosa PAO1/GN315, AMK-resistant. In kind it is cell-based, Pseudomonas aeruginosa. In short, it runs like this:
(§1)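 Read-out is the lowest compound concentration inhibiting growth (MIC, μg/mL), obtained by the agar plate dilution procedure of the Japan Society of Chemotherapy.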

A further assay relates to P. aeruginosa MSC01035. Nature of the assay: MIC, agar plate dilution method, P. aeruginosa MSC01035. Type of assay: cell-based, Pseudomonas aeruginosa. The following applies: P. aeruginosa MSC01035, ABK-resistant; for MIC: Pseudomonas aeruginosa, read-out: minimal inhibitory concentration (MIC). In short, it runs like this:
as §1

A further assay concerns P. aeruginosa PAO1. Description: MIC, agar plate dilution method, P. aeruginosa PAO1. In kind it is cell-based, Pseudomonas aeruginosa. The conditions noted are these: for MIC: Pseudomonas aeruginosa, PAO1, P. aeruginosa PAO1, Sensitive bacterium, read-out: minimal inhibitory concentration (MIC). The gist of the method: as §1
In a further assay the test system is S. aureus MF490. Nature of the assay: MIC, agar plate dilution method, S. aureus MF490. In kind it is cell-based, Staphylococcus aureus. The following applies: for MIC: Staphylococcus aureus, MRSA, read-out: minimal inhibitory concentration (MIC). In short, it runs like this:
as §1

Assay [1] deals with A. baumannii ATCC BAA-1710. Description: MIC, agar plate dilution method, A. baumannii ATCC BAA-1710. In kind it is cell-based, Acinetobacter baumannii. The conditions noted are these: for MIC: Acinetobacter baumannii, ATCCBAA1710, A. baumannii ATCC BAA-1710, MDRA, read-out: minimal inhibitory concentration (MIC). In short, it runs like this:
as §1

The subject of the next assay is E. faecium ATCC19434. Description: MIC, agar plate dilution method, E. faecium ATCC19434. Type of assay: cell-based, Enterococcus faecium. The conditions noted are these: for MIC: Enterococcus faecium, ATCC19434, E. faecium ATCC19434, read-out: minimal inhibitory concentration (MIC). In short, it runs like this: as §1
For another assay, the system named is S. aureus RN4220/pMS520. Description: MIC, agar plate dilution method, S. aureus RN4220/pMS520. In kind it is cell-based, Staphylococcus aureus. The conditions noted are these: for MIC: Staphylococcus aureus, MRSA, read-out: minimal inhibitory concentration (MIC), S. aureus RN4220/pMS520, MRSA. In short, it runs like this: as §1
For another assay, the system named is E. coli JM109/pMW218. Nature of the assay: MIC, agar plate dilution method, E. coli JM109/pMW218. In kind it is cell-based, Escherichia coli. The conditions noted are these: for MIC: Escherichia coli, JM109/PMW218, E. coli JM109/pMW218, Sensitive bacterium, read-out: minimal inhibitory concentration (MIC). In short, it runs like this:
as §1

The next assay concerns S. marcescens TH-0447. Description: MIC, agar plate dilution method, S. marcescens TH-0447. The following applies: for MIC: Serratia marcescens, TH0447, S. marcescens TH-0447, AMK-resistant, read-out: minimal inhibitory concentration (MIC). In kind it is cell-based, Serratia marcescens. In short, it runs like this: as §1
Another assay concerns P. aeruginosa MSC17707. Description: MIC, agar plate dilution method, P. aeruginosa MSC17707. Type of assay: cell-based, Pseudomonas aeruginosa. The conditions noted are these: for MIC: Pseudomonas aeruginosa, MSC17707, P. aeruginosa MSC17707, AMK-resistant, read-out: minimal inhibitory concentration (MIC). The gist of the method:
as §1

Another assay concerns S. aureus RN4220. Nature of the assay: MIC, agar plate dilution method, S. aureus RN4220. The following applies: for MIC: Staphylococcus aureus, RN4220, S. aureus RN4220, Sensitive bacterium, read-out: minimal inhibitory concentration (MIC). Type of assay: cell-based, Staphylococcus aureus. In short, it runs like this: as §1
A further assay has as its system S. marcescens GN6944. Description: MIC, agar plate dilution method, S. marcescens GN6944. Type of assay: cell-based, Serratia marcescens. The conditions noted are these: S. marcescens GN6944, GM-resistant; for MIC: Serratia marcescens, read-out: minimal inhibitory concentration (MIC). The gist of the method: as §1
Assay [2] deals with K. pneumoniae ATCC BAA-1705. Description: MIC, agar plate dilution method, K. pneumoniae ATCC BAA-1705. The conditions noted are these: for MIC: Klebsiella pneumoniae, ATCCBAA1705, K. pneumoniae ATCC BAA-1705, KPC-producing strain, read-out: minimal inhibitory concentration (MIC). Type of assay: cell-based, Klebsiella pneumoniae. The gist of the method: as §1
The subject of assay [3] is K. pneumoniae ATCC BAA-2146. Description: MIC, agar plate dilution method, K. pneumoniae ATCC BAA-2146. In kind it is cell-based, Klebsiella pneumoniae. The conditions noted are these: for MIC: Klebsiella pneumoniae, ATCCBAA2146, K. pneumoniae ATCC BAA-2146, NDM-producing strain, read-out: minimal inhibitory concentration (MIC). In short, it runs like this:
as §1

≈ marks a conversion by molar mass, not a printed value.

Consider `CNC1C(O[C@H]2OC(CO)[C@@H](N[C@H]3CC[C@@H](N)CC3)[C@H](O)C2O)O[C@H]2CC(N)[C@@H](O[C@@H]3C(N)C[C@@H](N)C(O)[C@H]3O)OC2C1O` (stereo partly drawn) [Compound A4-f, 4″-N-(cis-1,4-4-aminocyclohexyl)apramycin], for which the MIC with P. aeruginosa PAO1/GN315 is 16 µg/mL (≈ 25.1 µM); in the assay with P. aeruginosa MSC01035, 16 µg/mL (≈ 25.1 µM); with P. aeruginosa PAO1 it was 16 µg/mL (≈ 25.1 µM); in the assay with S. aureus MF490, 8 µg/mL (≈ 12.6 µM); in assay [1], 32 µg/mL (≈ 50.3 µM); in the assay on E. faecium ATCC19434, 32 µg/mL (≈ 50.3 µM). For the same molecule, the MIC in the assay on S. aureus RN4220/pMS520 was determined as 4 µg/mL (≈ 6.28 µM); in the assay on E. coli JM109/pMW218 it was 1 µg/mL (≈ 1.57 µM); in the assay with S. marcescens TH-0447, 16 µg/mL (≈ 25.1 µM); in the assay on P. aeruginosa MSC17707, 16 µg/mL (≈ 25.1 µM); in the assay on S. aureus RN4220, 4 µg/mL (≈ 6.28 µM); with S. marcescens GN6944, 8 µg/mL (≈ 12.6 µM). Further, the figures for the MIC in [2] and in [3] were 2 µg/mL (≈ 3.14 µM) and 1 µg/mL (≈ 1.57 µM), respectively.

For `CNC1C(O[C@H]2OC(CO)[C@@H](NC(=N)N)[C@H](O)C2O)O[C@H]2CC(N)[C@@H](O[C@H]3CC(O)[C@H](N)CC3N)OC2C1O` (some centres unmarked) [Compound S1-e, 4″-deamino-5-deoxy-4″-guanidinoapramycin], the MIC with P. aeruginosa PAO1/GN315 stood at 4 µg/mL (≈ 7.07 µM); in the assay on P. aeruginosa MSC01035, 8 µg/mL (≈ 14.1 µM); in the assay on P. aeruginosa PAO1, 4 µg/mL (≈ 7.07 µM); with S. aureus MF490, 4 µg/mL (≈ 7.07 µM); in assay [1], 4 µg/mL (≈ 7.07 µM); in the assay on E. faecium ATCC19434, 4 µg/mL (≈ 7.07 µM). Further, the MIC was determined as 1 µg/mL (≈ 1.77 µM) with S. aureus RN4220/pMS520; 0.5 µg/mL (≈ 0.884 µM) with E. coli JM109/pMW218; 4 µg/mL (≈ 7.07 µM) in the assay with S. marcescens TH-0447; 8 µg/mL (≈ 14.1 µM) in the assay with P. aeruginosa MSC17707; 1 µg/mL (≈ 1.77 µM) with S. aureus RN4220; 4 µg/mL (≈ 7.07 µM) with S. marcescens GN6944. For the same molecule, the results for the MIC in [2] and in [3] were 2 µg/mL (≈ 3.54 µM) and 0.5 µg/mL (≈ 0.884 µM), respectively.

For `CNC1C(O[C@H]2OC(CO)[C@@H](NC(=O)[C@@H](C)N)[C@H](O)C2O)O[C@H]2CC(N)[C@@H](O[C@@H]3C(N)C[C@@H](N)C(O)[C@H]3O)OC2C1O` (stereo partly drawn) [Compound V1-d, 4″-N-(D-alanyl)apramycin], the MIC came out at 8 µg/mL (≈ 13.1 µM) with P. aeruginosa PAO1/GN315; 8 µg/mL (≈ 13.1 µM) in the assay with P. aeruginosa MSC01035; 4 µg/mL (≈ 6.55 µM) with P. aeruginosa PAO1; 16 µg/mL (≈ 26.2 µM) in the assay on S. aureus MF490; 8 µg/mL (≈ 13.1 µM) in assay [1]; 64 µg/mL (≈ 105 µM) in the assay with E. faecium ATCC19434. Besides, the MIC in the assay with S. aureus RN4220/pMS520 came out at 4 µg/mL (≈ 6.55 µM); in the assay on E. coli JM109/pMW218, 2 µg/mL (≈ 3.28 µM); in the assay with S. marcescens TH-0447, 16 µg/mL (≈ 26.2 µM); in the assay on P. aeruginosa MSC17707 it was 8 µg/mL (≈ 13.1 µM); in the assay on S. aureus RN4220, 4 µg/mL (≈ 6.55 µM); in the assay with S. marcescens GN6944, 8 µg/mL (≈ 13.1 µM). The MIC in assay [2] and in [3] was 2 µg/mL (≈ 3.28 µM) throughout.

For the molecule `CNC1C(O[C@H]2OC(CO)[C@@H](NC3CNC3)[C@H](O)C2O)O[C@H]2CC(N)[C@@H](O[C@@H]3C(N)C[C@@H](N)C(O)[C@H]3O)OC2C1O` (some centres unmarked) [Compound A4-h, 4″-N-(azetidin-3-yl)apramycin], the “minimal inhibitory concentration (MIC)” value in the assay on P. aeruginosa PAO1/GN315 (P. aeruginosa PAO1/GN315, AMK-resistant) was 16 µg/mL (≈ 26.9 µM); with P. aeruginosa MSC01035, 16 µg/mL (≈ 26.9 µM); in the assay on P. aeruginosa PAO1 (P. aeruginosa PAO1, Sensitive bacterium), 8 µg/mL (≈ 13.5 µM); in the assay with S. aureus MF490 (S. aureus MF490, MRSA), 16 µg/mL (≈ 26.9 µM); in assay [1] (A. baumannii ATCC BAA-1710, MDRA) it was 16 µg/mL (≈ 26.9 µM); with E. faecium ATCC19434 (E. faecium ATCC19434), 32 µg/mL (≈ 53.8 µM). Also, the “minimal inhibitory concentration (MIC)” value in the assay with S. aureus RN4220/pMS520 (S. aureus RN4220/pMS520, MRSA) is 4 µg/mL (≈ 6.73 µM); in the assay on E. coli JM109/pMW218 (E. coli JM109/pMW218, Sensitive bacterium), 2 µg/mL (≈ 3.36 µM); in the assay on S. marcescens TH-0447 (S. marcescens TH-0447, AMK-resistant), 16 µg/mL (≈ 26.9 µM); in the assay with P. aeruginosa MSC17707 (P. aeruginosa MSC17707, AMK-resistant) it was 16 µg/mL (≈ 26.9 µM); with S. aureus RN4220 (S. aureus RN4220, Sensitive bacterium), 4 µg/mL (≈ 6.73 µM); in the assay with S. marcescens GN6944, 8 µg/mL (≈ 13.5 µM). The “minimal inhibitory concentration (MIC)” value in assay [2] (K. pneumoniae ATCC BAA-1705, KPC-producing strain) was 4 µg/mL (≈ 6.73 µM); in assay [3] (K. pneumoniae ATCC BAA-2146, NDM-producing strain), 2 µg/mL (≈ 3.36 µM).

These data come from patent publication US11135234B2, “Effective aminoglycoside antibiotic for multidrug-resistant bacteria” (MICROBIAL CHEMISTRY RESEARCH FOUNDATION, priority 2015, dated 2021).
